Data as given in patent publication US11584748B2, “Spirocyclic compounds” (priority 2018, dated 2023).

What follows are molecules tested against hCereblon(M1-L442)_hDDB1(M1-H1140) (Homo sapiens (Human), UniProt Q96SW2) (assay: Fluorescence direct binding (tryptophan fluorescence titration)). Details: 20° C., excitation 280 nm, emission 340 nm, 50 mM Hepes 7.4 200 mM NaCl; read-out: Fluorescence h-Cereblon_DDB1 Mean Kd_EQ.
hCereblon(M1-L442)_hDDB1(M1-H1140), sequence (Q96SW2 whole entry, looked up): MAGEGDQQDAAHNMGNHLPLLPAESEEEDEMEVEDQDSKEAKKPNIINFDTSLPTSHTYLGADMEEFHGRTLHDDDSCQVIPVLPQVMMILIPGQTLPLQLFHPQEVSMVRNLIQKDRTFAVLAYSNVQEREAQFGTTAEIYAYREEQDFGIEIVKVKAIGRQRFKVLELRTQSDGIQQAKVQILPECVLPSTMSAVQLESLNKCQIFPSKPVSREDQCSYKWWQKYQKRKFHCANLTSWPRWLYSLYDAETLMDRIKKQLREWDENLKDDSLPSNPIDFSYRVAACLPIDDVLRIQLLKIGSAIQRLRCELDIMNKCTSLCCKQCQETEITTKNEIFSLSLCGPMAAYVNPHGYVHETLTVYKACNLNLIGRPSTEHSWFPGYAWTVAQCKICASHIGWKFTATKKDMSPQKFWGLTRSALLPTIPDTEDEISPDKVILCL
hCereblon(M1-L442)_hDDB1(M1-H1140), sequence (Q16531 whole entry partner, looked up): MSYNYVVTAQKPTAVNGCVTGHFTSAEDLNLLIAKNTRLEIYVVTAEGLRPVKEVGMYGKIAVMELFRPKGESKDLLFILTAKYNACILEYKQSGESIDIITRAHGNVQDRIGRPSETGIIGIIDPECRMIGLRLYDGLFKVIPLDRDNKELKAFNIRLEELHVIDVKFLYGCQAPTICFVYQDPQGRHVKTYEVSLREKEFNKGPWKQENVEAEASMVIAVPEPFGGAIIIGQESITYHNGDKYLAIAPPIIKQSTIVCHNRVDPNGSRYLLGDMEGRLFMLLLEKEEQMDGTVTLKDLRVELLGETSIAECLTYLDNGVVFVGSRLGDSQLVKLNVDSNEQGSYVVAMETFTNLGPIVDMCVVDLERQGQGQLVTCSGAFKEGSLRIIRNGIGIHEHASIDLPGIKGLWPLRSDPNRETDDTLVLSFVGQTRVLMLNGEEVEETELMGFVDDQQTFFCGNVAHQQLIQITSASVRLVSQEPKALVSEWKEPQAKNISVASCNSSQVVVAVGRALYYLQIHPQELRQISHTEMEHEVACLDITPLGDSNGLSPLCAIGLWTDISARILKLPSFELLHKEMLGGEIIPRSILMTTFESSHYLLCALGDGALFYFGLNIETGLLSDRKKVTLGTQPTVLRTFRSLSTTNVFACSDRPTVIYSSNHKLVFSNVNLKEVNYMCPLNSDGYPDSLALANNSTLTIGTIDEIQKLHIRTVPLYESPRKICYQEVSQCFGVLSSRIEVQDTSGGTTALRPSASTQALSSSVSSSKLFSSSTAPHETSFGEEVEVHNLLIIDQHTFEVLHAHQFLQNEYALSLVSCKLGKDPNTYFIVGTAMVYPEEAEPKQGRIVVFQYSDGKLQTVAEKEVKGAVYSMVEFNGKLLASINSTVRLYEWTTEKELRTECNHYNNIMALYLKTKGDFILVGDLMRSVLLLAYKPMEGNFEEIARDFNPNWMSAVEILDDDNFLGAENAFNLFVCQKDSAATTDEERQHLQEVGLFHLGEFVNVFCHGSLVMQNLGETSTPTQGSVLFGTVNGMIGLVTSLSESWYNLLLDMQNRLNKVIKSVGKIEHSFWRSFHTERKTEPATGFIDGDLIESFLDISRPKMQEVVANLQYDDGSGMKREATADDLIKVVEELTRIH
Method: Fluorescence Direct Binding Protocol
Determination of the affinities of compounds to protein containing one or more tryptophan is measurable by monitoring the fluorescence emission in direct mode. The measurements, depending on the protein available amounts, were performed either manually in a cuvette on ISS-PCI photon counting spectrofluorometer or automatically in well plates on a fluorescence plate reader device. Fluorescence titrations were performed at 20° C. in the chosen binding assay buffer by using a defined constant protein concentration against ligand concentration variations. Small aliquots of known ligand concentration solubilized in DMSO were added and the fluorescence, excited at 280 nm, was recorded at 340 nm.
`O=C1NC(=O)C2(CCN(c3nc4ccccc4s3)CC2)N1` [Example 61, 8-(benzo[d]thiazol-2-yl)-1,3,8-triazaspiro[4.5]decane-2,4-dione] was tested, and the Kd was 2 nM.
`O=C1CCC2(CCN(C(=O)c3ccccc3)C2)C(=O)N1` (stereo not shown) [Example 36, 2-benzoyl-2,7-diazaspiro[4.5] decane-6,8-dione] was tested, and the Kd was less than 1 nM.
For `CC(=O)N1CCc2cc(C(=O)N3CCC4(CCC(=O)NC4=O)C3)ccc21` (stereo not shown) [Example 52, 2-(1-acetylindoline-5-carbonyl)-2,7-diazaspiro[4.5] decane-6,8-dione], the Kd was 41 nM.
Molecule `CN1CC2(CCC(=O)NC2=O)CC1=O` (stereo not shown) [Example 2, 2-methyl-2,7-diazaspiro[4.5] decane-3,6,8-trione] has a Kd of 159 nM.
`COC(=O)c1ccc(N2CCC3(CC2)CC(=O)NC3=O)nc1` [Example 74, methyl 6-(1,3-dioxo-2,8-diazaspiro[4.5]decan-8-yl)nicotinate] gave a Kd of 11 nM.
`O=C1NC(=O)C2(CCN(C(=O)[C@H]3CCCc4ccccc43)CC2)N1` [Example 58, (S)-8-(1,2,3,4-tetrahydronaphthalene-1-carbonyl)-1,3,8-triazaspiro[4.5]decane-2,4-dione] showed a Kd of 4 nM.
In the case of `O=C1NC(=O)C2(CCN(c3ccc([N+](=O)[O-])cn3)CC2)N1` [Example 69, 8-(5-nitropyridin-2-yl)-1,3,8-triazaspiro[4.5] decane-2,4-dione], the Kd is reported as 7 nM.
Work on `CC(=O)Nc1cccc(C(=O)N2CCC3(CCC(=O)NC3=O)C2)c1` (stereo not shown) [Example 37, N-(3-(6,8-dioxo-2,7-diazaspiro[4.5]decane-2-carbonyl)phenyl)acetamide] yielded a Kd of 6 nM.
`O=C1CCC2(CCN(C(=O)c3cccc4c3CC(=O)N4)C2)C(=O)N1` (stereo not shown) [Example 27, 2-(2-oxoindoline-4-carbonyl)-2,7-diazaspiro[4.5] decane-6,8-dione] gave a Kd of 47 nM.
In the case of `Nc1nc2ccc(C(=O)N3CCC4(CCC(=O)NC4=O)C3)cc2s1` (stereo not shown) [Example 55, 2-(2-aminobenzo [d]thiazole-6-carbonyl)-2,7-diazaspiro [4.5]decane-6,8-dione], the Kd is reported as 26 nM.
`O=C1CCC2(CCN(C(=O)c3cnn4ccccc34)C2)C(=O)N1` (stereo not shown) [Example 45, 2-(pyrazolo[1,5-a]pyridine-3-carbonyl)-2,7-diazaspiro[4.5] decane-6,8-dione] gave a Kd of less than 1 nM.
Work on `CC(C)(C)OC(=O)Nc1nc2cc(C(=O)N3CCC4(CCC(=O)NC4=O)C3)ccc2s1` (stereo not shown) [Example 53, tert-butyl (5-(6,8-dioxo-2,7-diazaspiro[4.5]decane-2-carbonyl)benzo[d]thiazol-2-yl)carbamate] yielded a Kd of 6 nM.
Molecule `COC(=O)c1ccc(N2CCC3(CCC(=O)NC3=O)C2)nc1` (stereo not shown) [Example 6, methyl 6-(6,8-dioxo-2,7-diazaspiro[4.5]decan-2-yl) nicotinate] has a Kd of less than 1 nM.
`CC(=O)Nc1nc2cc(C(=O)N3CCC4(CCC(=O)NC4=O)C3)ccc2s1` (stereo not shown) [Example 50, N-(5-(6,8-dioxo-2,7-diazaspiro[4.5]decane-2-carbonyl)benzo[d]thiazol-2-yl)acetamide] gave a Kd of 45 nM.
Work on `O=C1CCC2(CCN(c3nc4cc([N+](=O)[O-])ccc4[nH]3)C2)C(=O)N1` (stereo not shown) [Example 9, 2-(5-nitro-1H-benzo[d]imidazol-2-yl)-2,7-diazaspiro [4.5]decane-6,8-dione] yielded a Kd of 8 nM.
In the case of `COC(=O)c1cccc(N2CCC3(CCC(=O)NC3=O)C2)n1` (stereo not shown) [Example 32, methyl 6-(6,8-dioxo-2,7diazaspiro[4.5]decan-2-yl)picolinate], the Kd is reported as 1 nM.
`O=C1CCC2(CCN(c3ccc([N+](=O)[O-])cn3)C2)C(=O)N1` (stereo not shown) [Example 30, 2-(5-nitropyridin-2-yl)-2,7-diazaspiro [4.5]decane-6,8-dione] showed a Kd of 1 nM.
`O=C1CC2(CCN(C(=O)[C@@H]3CCCc4ccccc43)CC2)C(=O)N1` (single isomer, unassigned) [Example 78] was tested, and the Kd was 4 nM.
`O=C1CCC2(CCN(C(=O)c3ccc4c(c3)NCC4)C2)C(=O)N1` (stereo not shown) [Example 41, 2-(indoline-6-carbonyl)-2,7-diazaspiro[4.5] decane-6,8-dione] gave a Kd of 75 nM.
`O=C1CCC2(CCN(C(=O)c3ccc4ncoc4c3)C2)C(=O)N1` (stereo not shown) [Example 46, 2-(benzo[d]oxazole-6-carbonyl)-2,7-diazaspiro[4.5] decane-6,8-dione] showed a Kd of 10 nM.
Molecule `O=C1CCC2(CCNC2)C(=O)N1` (stereo not shown) [Example 1, 2,7-diazaspiro [4.5]decane-6,8-dione] has a Kd of 84 nM.
For `CC(=O)N1CCc2ccc(C(=O)N3CCC4(CCC(=O)NC4=O)C3)cc21` (stereo not shown) [Example 42, 2-(1-acetylindoline-6-carbonyl)-2,7-diazaspiro[4.5] decane-6,8-dione], the Kd was 8 nM.
Work on `CC(C)(C)OC(=O)Nc1nc2ccc(C(=O)N3CCC4(CCC(=O)NC4=O)C3)cc2s1` (stereo not shown) [Example 54, tert-butyl (6-(6,8-dioxo-2,7-diazaspiro[4.5]decane-2-carbonyl)benzo[d]thiazol-2-yl)carbamate] yielded a Kd of 4 nM.
Work on `O=C1CCC2(CCN(C(=O)c3coc4ccccc34)C2)C(=O)N1` (stereo not shown) [Example 44, 2-(benzofuran-3-carbonyl)-2,7-diazaspiro[4.5] decane-6,8-dione] yielded a Kd of 9 nM.
`O=C1CC2(CCN(C(=O)[C@H]3CCCc4ccccc43)CC2)C(=O)N1` (single isomer, unassigned) [Example 77] showed a Kd of 6 nM.
`CC(=O)N1CCc2c(C(=O)N3CCC4(CCC(=O)NC4=O)C3)cccc21` (stereo not shown) [Example 35, 2-(1-acetylindoline-4-carbonyl)-2,7-diazaspiro[4.5] decane-6,8-dione] gave a Kd of less than 1 nM.
In the case of `O=C1CCC2(CCN(c3nc4cc([N+](=O)[O-])ccc4[nH]3)C2)C(=O)N1` (single isomer, unassigned) [Example 33, 2-(5-nitro-1H-benzo[d]imidazol-2-yl)-2,7-diazaspiro[4.5] decane-6,8-dione], the Kd is reported as less than 1 nM.
`Cn1c(N2CCC3(CCC(=O)NC3=O)C2)nc2ccccc21` (stereo not shown) [Example 19, 2-(1-methyl-1H-benzo[d]imidazol-2-yl)-2,7-diazaspiro[4.5] decane-6,8-dione] gave a Kd of 30 nM.
`O=C1NC(=O)C2(CCN(c3ccc([N+](=O)[O-])cc3)CC2)N1` [Example 72, 8-(4-nitrophenyl)-1,3,8-triazaspiro[4.5] decane-2,4-dione] gave a Kd of less than 1 nM.
`Cc1sc2c(c1C)C(c1ccc(Cl)cc1)=NC(CC(=O)NCCCCCCCC(=O)Nc1cccc(C(=O)N3CCC4(CCC(=O)NC4=O)C3)c1)c1nnc(C)n1-2` (stereo in doubt) [Example 57, 8-(2-((R)-4-(4-chlorophenyl)-2,3,9-trimethyl-6H-thieno[3,2-f] [1,2,4]triazolo [4,3-a] [1,4]diazepin-6-yl)acetamido)-N-(3-(6,8-dioxo-2,7-diazaspiro[4.5]decane-2-carbonyl)phenyl) octanamide] showed a Kd of 106 nM.
`O=C1CCC2(CCN(c3ccc4ccccc4n3)C2)C(=O)N1` (stereo not shown) [Example 15, 2-(quinolin-2-yl)-2,7-diazaspiro[4.5] decane-6,8-dione] gave a Kd of 6 nM.
`O=C1CCC2(CCN(C(=O)c3cccc4c3CCN4)C2)C(=O)N1` (stereo not shown) [Example 40, 2-(indoline-4-carbonyl)-2,7-diazaspiro[4.5] decane-6,8-dione] was tested, and the Kd was 6 nM.
`O=C1CC2(CCN(c3ccc([N+](=O)[O-])cn3)CC2)C(=O)N1` [Example 70, 8-(5-nitropyridin-2-yl)-2,8-diazaspiro[4.5] decane-1,3-dione] gave a Kd of 23 nM.
For `COC(=O)c1ccc(C(=O)N2CCC3(CCC(=O)NC3=O)C2)cc1` (stereo not shown) [Example 28, methyl 4-(6,8-dioxo-2,7-diazaspiro[4.5]decane-2-carbonyl) benzoate], the Kd was 13 nM.
`O=C1NC(=O)C2(CCN(C(=O)c3coc4ccccc34)CC2)N1` [Example 66, 8-(benzofuran-3-carbonyl)-1,3,8-triazaspiro[4.5] decane-2,4-dione] was tested, and the Kd was 1 nM.
For `CC(=O)Nc1nc2ccc(C(=O)N3CCC4(CCC(=O)NC4=O)C3)cc2s1` (stereo not shown) [Example 51, N-(6-(6,8-dioxo-2,7-diazaspiro[4.5]decane-2-carbonyl)benzo[d]thiazol-2-yl)acetamide], the Kd was 94 nM.
For `O=C1NC(=O)C2(CCN(C(=O)[C@@H]3CCCc4ccccc43)CC2)N1` [Example 59, (R)-8-(1,2,3,4-tetrahydronaphthalene-1-carbonyl)-1,3,8-triazaspiro[4.5]decane-2,4-dione], the Kd was 5 nM.
In the case of `O=C1CC2(CCN(C(=O)c3ccccc3)CC2)C(=O)N1` [Example 75, 8-benzoyl-2,8-diazaspiro[4.5] decane-1,3-dione], the Kd is reported as less than 1 nM.
With `O=C1CC2(CCN(c3nc4ccccc4s3)CC2)C(=O)N1` [Example 71, 8-(benzo[d]thiazol-2-yl)-2,8-diazaspiro[4.5] decane-1,3-dione] the Kd was 2 nM.
Molecule `O=C1CCC2(CCN(c3nc4cc([N+](=O)[O-])ccc4[nH]3)C2)C(=O)N1` (single isomer, unassigned) [Example 34, 2-(5-nitro-1H-benzo[d]imidazol-2-yl)-2,7-diazaspiro[4.5] decane-6,8-dione] has a Kd of 5 nM.
Molecule `O=C1NC(=O)C2(CCN(C(=O)c3ccc4scnc4c3)CC2)N1` [Example 81, 8-(benzo[d]thiazole-5-carbonyl)-1,3,8-triazaspiro[4.5] decane-2,4-dione] has a Kd of 6 nM.
Work on `O=C1CCC2(CCN(C(=O)c3ccc4scnc4c3)C2)C(=O)N1` (stereo not shown) [Example 29, 2-(benzo[d]thiazole-5-carbonyl)-2,7-diazaspiro[4.5] decane-6,8-dione] yielded a Kd of less than 1 nM.
For `O=C1CCC2(CCN(c3nc4cnccc4s3)C2)C(=O)N1` (stereo not shown) [Example 20, 2-(thiazolo[4,5-c]pyridin-2-yl)-2,7-diazaspiro[4.5] decane-6,8-dione], the Kd was 6 nM.
Molecule `O=C1CCC2(CCN(C(=O)c3cccc4[nH]ncc34)C2)C(=O)N1` (stereo not shown) [Example 38, 2-(1H-indazole-4-carbonyl)-2,7-diazaspiro[4.5] decane-6,8-dione] has a Kd of 84 nM.
Molecule `O=C1CCC2(CCN(C(=O)c3ccc4c(c3)CCN4)C2)C(=O)N1` (stereo not shown) [Example 47, 2-(indoline-5-carbonyl)-2,7-diazaspiro[4.5] decane-6,8-dione] has a Kd of 4 nM.
`O=C1CCC2(CCN(c3nc4ccccc4s3)C2)C(=O)N1` (stereo not shown) [Example 12, 2-(benzo[d]thiazol-2-yl)-2,7-diazaspiro [4.5]decane-6,8-dione] showed a Kd of 1 nM.
